Where two headings read alike, the source gives them in different places.
Experiments:
[1] = system: ocular function; settings: in vivo; cited from earlier work
[2] = target: T1, D-2 dopamine receptor (Bos taurus, UniProt P20288); settings: stated for contrast, no test data given; cited from earlier work
[3] = system: intraocular pressure; settings: monkeys; cited from earlier work
[4] = system: intraocular pressure; settings: rabbits; cited from earlier work
[5] = target: T2, α2-adrenergic receptors (Rattus norvegicus, UniProt P22909); experiment: α2-adrenergic receptor specific binding, [3H]-Para aminoclonidine
T2 construct: from tissue; host or cells: cerebral cortex membranes of male Sprague Dawley rats
T2 sequence (P22909 1-465): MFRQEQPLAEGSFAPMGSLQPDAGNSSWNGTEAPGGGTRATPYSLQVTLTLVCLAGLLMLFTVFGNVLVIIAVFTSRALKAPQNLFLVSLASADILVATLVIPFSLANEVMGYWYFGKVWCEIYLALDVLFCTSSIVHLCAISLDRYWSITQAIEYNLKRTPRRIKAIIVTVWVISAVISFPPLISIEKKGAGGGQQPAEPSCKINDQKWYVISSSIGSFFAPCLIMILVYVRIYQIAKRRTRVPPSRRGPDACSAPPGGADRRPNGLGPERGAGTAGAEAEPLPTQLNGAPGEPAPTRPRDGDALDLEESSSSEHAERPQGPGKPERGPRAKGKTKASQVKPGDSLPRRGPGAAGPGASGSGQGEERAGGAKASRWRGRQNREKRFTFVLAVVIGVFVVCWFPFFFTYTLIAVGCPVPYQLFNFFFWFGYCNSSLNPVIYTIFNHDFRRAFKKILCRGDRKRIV
Protocol: (§1) Dopamine receptor assays: Specific binding studies to test the affinity of the compounds for D1, D2 and α2 receptors were conducted using bovine caudate nuclei prepared as follows:
α2-adrenergic receptors assays were conducted using the rat cerebral cortex prepared as follows:
Male Sprague Dawley rats were killed by decapitation and the brains removed. The cerebral cortices were homogenized in 50 mM Tris; 2 mM MgCl2 (pH 7.4), and centrifuged at 40,000×g for 10 minutes. The pellet was washed once, resuspended in Tris/MgCl2 and incubated with 8 units/ml adenosine deaminase at 37° C. for 30 minutes. The homogenate was centrifuged, washed once, resuspended to a protein concentration of 5-10 mg/ml and frozen at -70° C. until use.
(§2) The following tritiated drugs were used as radioligands in the binding studies:
[^3 H]-Para aminoclonidine 48-52 Ci/mmol for α2 -adrenergic receptors.
[^3 H]-paraaminoclonidine was obtained from Amersham, Arlington Heights, Ill. Yohimbine was obtained from Sigma Chemical Co., St. Louis, Mo.
(§3) The radioligands were incubated with various concentrations of competing drug and the appropriate membrane source for 75 minutes at room temperature for D2 receptors, 15 minutes at 37° C. for D1 receptors, or 30 minutes at room temperature for α2 receptors. Specific binding was defined using 1 μM butaclamol (D2), 1 μM SCH23390 (D1), or 1 μM yohimbine (α2). In addition the D2 assays contained 30 nM ketaserin in order to block the binding of ^3 H-spiperone to 5HT2 receptors. The assays were terminated by filtration using a 24-port Brandell cell harvester over filters that had been previously soaked in 0.1% polyethyleneimine, and the filters were washed three times by filtration of cold buffer. […] The results are presented as Ki values if the data were best fitted to a one-site model, or as KH and KL values if a two-site model produced the better fit.

[6] = target: T3, D2 receptors (Bos taurus, UniProt P20288); experiment: D2 receptor specific binding, [3H]-Spiperone; design: species or system bovine; settings: for Ki: bovine caudate nuclei, [3H]-Spiperone, 30 nM ketanserin, 75 minutes at room temperature; for increase in selectivity for D2 receptors: compared to the thienyl compound
T3 construct: The caudate nuclei were dissected out and homogenized in Buffer A; from tissue; host or cells: bovine caudate nuclei membranes (brains from a local slaughterhouse)
Protocol: as §1
(§4) Bovine brains were obtained fresh from a local slaughterhouse. The caudate nuclei were dissected out and homogenized in Buffer A (50 mM Tris; 1 mM Na2 -EDTA; 5 mM KCl; 1 mM MgCl2; 2 mM CaCl2; pH 7.4) using a Brinkman Polytron. The homogenate was centrifuged at 40,000×g for 20 minutes and washed once. The pellett was resuspended in Buffer A, incubated at 37° C. for 15 minutes, then centrifuged. The pellet was washed once more, resuspended to a protein concentration of 5-10 mg/ml in Buffer A and frozen at -70° C. until used.
as §2
[^3 H]-Spiperone 21-24 Ci/mmol for D2 receptors
(§5) [^3 H]-spiperone, [^3 H]-SCH22390, and [^3 H]-ketanserin were obtained from New England Nuclear, Boston, Me.
as §3

[7] = target: T4, D1 receptors (Bos taurus, UniProt Q95136); experiment: D1 receptor specific binding, [3H]-SCH23390; design: species or system bovine
T4 construct: The caudate nuclei were dissected out and homogenized in Buffer A; from tissue; host or cells: bovine caudate nuclei membranes (brains from a local slaughterhouse)
Protocol: as §1, §4, §2, §5, §3

[8] = target: T1, D-2 dopamine receptor; experiment: displacement of specific D-2 dopamine receptor binding of tritiated racemic 2-(N-propyl-N-2-thienylethylamino)-5-hydroxytetralin; design: homogenates of calf brain corpus striatum; from tissue; host or cells: calf brain corpus striatum homogenate; species or system calf
Protocol: The pharmacological activity of the product of Example 2 was determined by examining its ability to displace the specific D-2 dopamine receptor binding of a tritium-containing racemic mixture of 2-(N-propyl-N-2-thienylethylamino)-5-hydroxytetralin to homogenates of calf brain corpus striatum.

[9] = target: T5, D-1 dopamine receptor (Bos taurus, UniProt Q95136); experiment: displacement of tritium labeled SCH 23390 at the D-1 dopamine receptor, striatum membranes; type: binding; settings: bovine brain striatum membranes
T5 construct: membranes isolated from the striatum of bovine brain; from tissue; host or cells: bovine brain striatum membranes
Protocol: The activity at the D-1 dopamine receptor was tested by the method described in Raisman et al. Eur. J. Pharmacol 113: (1985), pp. 467-468, which utilizeds membranes isolated from the striatum of bovine brain. […] Thus, the 1C50 value for the compound of Example 2 is >100,000 at the D-1 receptor.

[10] = system: intraocular pressure; settings: man; eyedrops; cited from earlier work
[11] = rat cerebral cortex, [3H]-Para aminoclonidine, 30 minutes at room temperature, read-out: Ki α2
[12] = bovine caudate nuclei, [3H]-SCH23390, 15 minutes at 37° C., read-out: Ki D1

T4 sequence (Q95136 whole entry): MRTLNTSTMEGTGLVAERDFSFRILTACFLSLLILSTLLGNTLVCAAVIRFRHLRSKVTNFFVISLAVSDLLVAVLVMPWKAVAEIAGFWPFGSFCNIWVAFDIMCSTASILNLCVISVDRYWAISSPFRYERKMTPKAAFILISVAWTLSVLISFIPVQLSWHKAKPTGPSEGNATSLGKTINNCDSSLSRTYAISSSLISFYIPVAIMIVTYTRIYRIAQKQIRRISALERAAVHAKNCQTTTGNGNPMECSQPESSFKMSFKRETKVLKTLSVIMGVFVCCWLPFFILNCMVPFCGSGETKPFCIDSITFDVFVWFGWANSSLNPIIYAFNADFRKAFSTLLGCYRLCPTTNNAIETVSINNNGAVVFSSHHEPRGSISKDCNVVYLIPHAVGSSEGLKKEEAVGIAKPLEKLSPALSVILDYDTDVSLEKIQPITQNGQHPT
T3 sequence (P20288 whole entry): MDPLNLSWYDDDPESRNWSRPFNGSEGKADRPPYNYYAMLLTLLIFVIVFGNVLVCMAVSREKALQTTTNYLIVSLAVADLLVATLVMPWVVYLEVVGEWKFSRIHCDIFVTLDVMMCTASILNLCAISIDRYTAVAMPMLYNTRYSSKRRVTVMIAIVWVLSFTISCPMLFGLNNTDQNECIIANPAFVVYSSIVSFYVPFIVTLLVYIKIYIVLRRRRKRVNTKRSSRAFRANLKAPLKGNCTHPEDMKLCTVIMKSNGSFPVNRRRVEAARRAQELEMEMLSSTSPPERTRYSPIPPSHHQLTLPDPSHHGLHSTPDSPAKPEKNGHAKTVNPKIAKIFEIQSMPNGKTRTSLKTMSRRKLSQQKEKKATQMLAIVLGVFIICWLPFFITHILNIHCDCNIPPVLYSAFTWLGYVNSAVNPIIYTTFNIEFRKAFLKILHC
T1 sequence (P20288 whole entry): as above
T5 sequence (Q95136 whole entry): as the sequence (Q95136 whole entry) above

Which “alteration of ocular function” value [1] does the source give for `CCCN(CCC)CCc1ccc(O)c(O)c1` [N,N-di-n-propyldopamine] here?
Its value is “may alter ocular function”.

For `NCCc1ccc(O)c(O)c1` [dopamine], which “binding at the D-1 and D-2 receptor (comparison substances)” value [2] is on record?
Its value is “substantially equivalent binding at the D-1 and D-2 receptor”.

With `CCCN1C[C@H](CSC)C[C@@H]2c3cccc4[nH]cc(c34)C[C@H]21` [pergolide] as the compound, how does the intraocular pressure [3] read?
The intraocular pressure was “lowered the intraocular pressure of monkeys”.

And the intraocular pressure [4]?
The intraocular pressure was “lower the intraocular pressure of rabbits”.

With `CCCN(CCc1csc2ccccc12)C1CCc2c(O)cccc2C1` (centres unmarked) as the compound, how does the Ki [5, 11] read?
The Ki was 250 nM.

What about the Ki [6] of the same compound?
The Ki was 130 nM.

And the “increase in selectivity for D2 receptors” value [6]?
Its value is “two-fold”.

What about the Ki [7, 12] of the same compound?
The Ki was 1950 nM.

Which results are given for `CCCN(CCc1cccs1)C1CCc2c(O)cccc2C1` (racemic) [2-(N-propyl-N-2-thienylethylamino)-5-hydroxytetralin]?
Kd [8]: 1.6 nM; bmax ([8]; tritium-containing racemic mixture, calf brain corpus striatum homogenates): 26.0 picomoles/gm

For `CCCN(CCc1ccc2ccccc2c1)C1CCc2c(O)cccc2C1` (centres unmarked), which Ki [5, 11] is on record?
Its Ki is 2500 nM.

What about the Ki [6] of the same compound?
The Ki was 80 nM.

What about the “increase in selectivity for D2 receptors” value [6] of the same compound?
The value was “six and a half-fold”.

And the Ki [7, 12]?
Its Ki is 6460 nM.

Which intraocular pressure [3] does the source give for `CN1C[C@H](CC#N)C[C@@H]2c3cccc4[nH]c(Cl)c(c34)C[C@H]21` [lergotrile] here?
Its intraocular pressure is “lowered the intraocular pressure of monkeys”.

And the intraocular pressure [4]?
Its intraocular pressure is “lower the intraocular pressure of rabbits”.

For `CNCCc1ccc(O)c(O)c1` [N-methyldopamine], which “alteration of ocular function” value [1] is on record?
Its value is “may alter ocular function”.

What about the “mechanism: aqueous humor formation” value [1] of the same compound?
Its value is “suppressing aqueous humor formation”.

With `CN1CCc2cccc3c2[C@H]1Cc1ccc(O)c(O)c1-3` [apomophine] as the compound, how does the “binding at the D-1 and D-2 receptor (comparison substances)” value [2] read?
The value was “substantially equivalent binding at the D-1 and D-2 receptor”.

Which “alteration of ocular function” value [1] does the source give for `CN(C)CCc1ccc(O)c(O)c1` [N,N-dimethyl-dopamine] here?
Its value is “may alter ocular function”.

Which Ki [5] does the source give for `CCCN(CCc1cccs1)C1CCc2c(O)cccc2C1` (centres unmarked) here?
The Ki was 190 nM.

What about the Ki [6] of the same compound?
The Ki was 110 nM.

And the Ki [7]?
The Ki was 1000 nM.

Which IC50 ([9]; D-1, tritium labeled SCH 23390, read-out: 1C50 value at the D-1 receptor) does the source give for `CCCN(CCc1cc2ccccc2s1)C1CCc2c(O)cccc2C1` (centres unmarked) [Example 2, 2-(N-n-propyl-N-2-[2-benzothienyl]ethylamino)-5-hydroxytetralin] here?
The IC50 was greater than 100000 nM.

What about the “displacement of tritium labeled SCH 23390” value ([9]; concentration range 10^-11 to 10^-4 moles) of the same compound?
The value was “did not displace”.

And the IC50 ([8]; D-2, calf brain corpus striatum homogenates, read-out: IC50 (concentration of drug required to inhibit the binding of labelled drug by 50 percent))?
The IC50 was 0.56 nM.

What about the “D-2 as opposed to D-1 binding selectivity” value ([8]; comparison of D-2 and D-1 binding) of the same compound?
The value was “extremely selective D-2 as opposed to D-1 binding”.

Which intraocular pressure [4] does the source give for `CC(C)C[C@H]1C(=O)N2CCC[C@H]2[C@]2(O)O[C@](NC(=O)[C@@H]3C=C4c5cccc6[nH]c(Br)c(c56)C[C@H]4N(C)C3)(C(C)C)C(=O)N12` [bromocriptine] here?
The intraocular pressure was “lower the intraocular pressure of rabbits”.

And the intraocular pressure [10]?
The intraocular pressure was “may lower intraocular pressure”.
